Experimental data as given in publication PMC3401165, “Regulation of the Cyanobacterial CO2-Concentrating Mechanism Involves Internal Sensing of NADP^+ and α-Ketogutarate Levels by Transcription Factor CcmR” (PLoS ONE, 2012).

What was measured:
CmpR = target: T1, CmpR (Synechocystis sp. PCC 6803, UniProt Q55459); experiment: SPR difference curves, CmpR binding to immobilised operator DNA; conditions: 1.5 µM CmpR; ligand 10, 100, 500 µM; cmpA promoter DNA; effector (co-activator)
T1 construct: heterologously expressed in E. coli by essentially the same approach as His-tagged CcmR
T1 sequence (Q55459 1-304): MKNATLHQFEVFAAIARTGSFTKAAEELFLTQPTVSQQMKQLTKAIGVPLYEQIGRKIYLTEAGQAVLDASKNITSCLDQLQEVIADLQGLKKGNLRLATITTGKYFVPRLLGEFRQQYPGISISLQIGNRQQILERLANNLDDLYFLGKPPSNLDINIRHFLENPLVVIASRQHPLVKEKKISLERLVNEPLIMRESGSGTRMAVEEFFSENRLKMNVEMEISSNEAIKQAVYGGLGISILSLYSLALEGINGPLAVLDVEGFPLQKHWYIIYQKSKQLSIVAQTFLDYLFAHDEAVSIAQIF

[1] = test system: T2, CcmR (Synechocystis sp. PCC 6803), ORF:206cd751; experiment: SPR; conditions: SPR: 10 mM Pipes pH 7.4, 300 mM NaCl, 0.02% Tween-20, 25 uL/min, temperature not stated; EMSA: room temperature 20 min, 6% native PAGE (50 mM Tris pH 8.5 …)
T2 sequence: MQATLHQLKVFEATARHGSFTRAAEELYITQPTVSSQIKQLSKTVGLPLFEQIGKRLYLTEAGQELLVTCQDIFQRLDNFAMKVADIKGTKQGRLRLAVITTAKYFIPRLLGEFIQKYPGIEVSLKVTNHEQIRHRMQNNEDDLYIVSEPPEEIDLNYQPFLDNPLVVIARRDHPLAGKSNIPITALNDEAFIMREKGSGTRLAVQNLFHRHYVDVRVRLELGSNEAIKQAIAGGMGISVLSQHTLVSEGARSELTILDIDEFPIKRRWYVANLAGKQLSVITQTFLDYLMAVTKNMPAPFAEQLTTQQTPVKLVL

CcmR = target: T3, CcmR (Synechocystis sp. PCC 6803, UniProt P73862); experiment: SPR difference curves, CcmR binding to immobilised operator DNA; conditions: 1.5 µM CcmR; ligand 10, 100, 500 µM; pndhF3 DNA; 10 mM Pipes pH 7.4, 300 mM NaCl; effector (co-repressor)
T3 construct: gene rbcR; recombinant N-terminally His-tagged, heterologously expressed
T3 sequence (P73862 1-316): T2 sequence

Row | Compound | SPR difference curves, CmpR binding to immobilised operator DNA (CmpR) | binding [1] | SPR difference curves, CcmR binding to immobilised operator DNA (CcmR)
1 | O=C(COP(=O)(O)O)[C@H](O)[C@H](O)COP(=O)(O)O [ribulose-1,5-bisphosphate] | the presence of 2-PG and RuBP increased binding |  | 
2 | GCTCCCCGGACTAAGCTTGTCAAAATCATTGGCTTTATTCTATCATTGGTTATCTAACAACAATCCCAGGTCTATGAAAGTGAGTGTAATAGCCATAGGTCTATTTTAGTTATTGACTTCAGCACATCCTAGACCCAAG (double strand) [pccmR (SPR)] |  | binds | 
3 | O=C(O)COP(=O)(O)O [2-phosphoglycolate] | the presence of 2-PG and RuBP increased binding |  | 
4 | O=C(O)CCC(=O)C(=O)O [α-KG] |  |  | CcmR only showed modified binding only in the presence of NADP^+ and α-KG
5 | AGTCAAGCGACAATGGTATAACCTAGATGCATAGAAAGAGTGTTATTTGTTACACCATATCATAGGGGAAATAAAATTCCAGATCAACAACCATTTGCTTAAGTGAATGATAAGTCTGGGTAATTGGAGGAAGAGGCAGGCTA (double strand) [pndhF3-2] |  | binds | 
6 | NC(=O)c1ccc[n+]([C@@H]2O[C@H](COP(=O)(O)OP(=O)(O)OC[C@H]3O[C@@H](n4cnc5c(N)ncnc54)[C@H](OP(=O)(O)O)[C@@H]3O)[C@@H](O)[C@H]2O)c1 [NADP^+] |  |  | CcmR only showed modified binding only in the presence of NADP^+ and α-KG
